The source of these data is ChEMBL document CHEMBL4680272 (Eur J Med Chem, 2020).

Active and inactive are the calls of the source. A value given as a limit tells only on which side of the number the result lay.

Series [1] relates to Influenza A virus (A/Anhui/1/2005(H5N1)). Nature of the series: Inhibition of Influenza A virus (A/Anhui/1/2005(H5N1) Neuraminidase using MUNANA as substrate at 10 uM preincubated for 5 to 15 mins followed by substrate addition and measured after 30 mins by fluorescence spectrophotometric method. To be noted: time 35-45 min.
For series [2] the test system is unchanged. Nature of the series: Inhibition of Influenza A virus (A/Anhui/1/2005(H5N1) Neuraminidase using MUNANA as substrate at 100 uM preincubated for 5 to 15 mins followed by substrate addition and measured after 30 mins by fluorescence spectrophotometric method. Conditions: time 35-45 min.
Series [3] in a line: Oral bioavailability in rat. Type of series: ADME, organism-based. Conditions: in vivo.
For series [4] the following is noted: human, plasma.
A short description of series [5]: in vitro. To be noted: human, plasma.
The nature of series [6]: Inhibition of Influenza A virus (A/Anhui/1/2005(H5N1) Neuraminidase using MUNANA as substrate preincubated for 5 to 15 mins followed by substrate addition and measured after 30 mins by fluorescence spectrophotometric method.
Series [7] in a line: in vitro. Conditions: mouse, liver microsomes. A general note: Liver microsomes are a subcellular fraction often used to study metabolism.
The nature of series [8]: in vitro. To be noted: rat, liver microsomes.
A short description of series [9]: in vitro. Conditions: human, liver microsomes.
Series [10] can be described thus: Inhibition of Influenza A virus (A/Babol/36/2005 (H3N2)) Neuraminidase using MUNANA as substrate preincubated for 5 to 15 mins followed by substrate addition and measured after 30 mins by fluorescence spectrophotometric method.
Series [11] can be described thus: AUC in Sprague-Dawley rat at 10 mg/kg, iv measured for 24 hrs by LC-MS/MS analysis. Format: ADME, organism-based. More on the design: dose 10 mg/kg, time 24 hrs. To be noted: in vivo.
Series [12] in a line: AUC in Sprague-Dawley rat at 50 mg/kg, po measured for 24 hrs by LC-MS/MS analysis. Format: ADME, organism-based. Details: time 24 hrs, dose 50 mg/kg. To be noted: in vivo.
Series [13] is described as follows: Tmax in Sprague-Dawley rat at 50 mg/kg, po by LC-MS/MS analysis. Conditions: in vivo. Type of series: ADME, organism-based.
The nature of series [14]: Cmax in Sprague-Dawley rat at 50 mg/kg, po measured for 24 hrs by LC-MS/MS analysis. Details: route oral, dose 50 mg/kg, time 24 hrs. Conditions: in vivo. Type of series: ADME, organism-based.
Series [15] can be described thus: Half life in Sprague-Dawley rat at 50 mg/kg, po measured for 24 hrs by LC-MS/MS analysis. Type of series: ADME, organism-based. Conditions: in vivo.
Series [16] can be described thus: Bioavailability in Sprague-Dawley rat at 10 mg/kg, iv measured for 24 hrs by LC-MS/MS analysis. Type of series: ADME, organism-based. To be noted: in vivo.
The nature of series [17]: Oral bioavailability in Sprague-Dawley rat at 50 mg/kg measured for 24 hrs by LC-MS/MS analysis. Format: ADME, organism-based. Conditions: in vivo.
The nature of series [18]: Inhibition of Influenza A virus (A/California/04/2009 (H1N1)) Neuraminidase using MUNANA as substrate preincubated for 5 to 15 mins followed by substrate addition and measured after 30 mins by fluorescence spectrophotometric method.
The conditions of series [19]: human, plasma, 2 h.
Another series in a line: in vivo. To be noted: Sprague-Dawley, rat, iv, 10 mg/kg.
Series [20] is described as follows: in vitro. Conditions: mouse, liver microsomes. This is another data set of the same source.
A short description of series [21]: in vitro. Conditions: rat, liver microsomes. This is another data set of the same source.
Series [22] in a line: in vitro. Conditions: human, liver microsomes. The source holds these as a separate data set.
The nature of series [23]: in vitro. To be noted: human, plasma. The source holds these as a separate data set.
The nature of series [24]: in vitro. Conditions: human, plasma. The source holds these as a separate data set.
Series [25] in a line: AUC in Sprague-Dawley rat at 10 mg/kg, po measured for 24 hrs by LC-MS/MS analysis. Type of series: ADME, organism-based. More on the design: time 24 hrs, dose 10 mg/kg. Conditions: in vivo.
Series [26] can be described thus: Tmax in Sprague-Dawley rat at 10 mg/kg, po by LC-MS/MS analysis. Format: ADME, organism-based. Conditions: in vivo.
Series [27] in a line: Cmax in Sprague-Dawley rat at 10 mg/kg, po measured for 24 hrs by LC-MS/MS analysis. Format: ADME, organism-based. Details: route oral, dose 10 mg/kg, time 24 hrs. Conditions: in vivo.
The nature of series [28]: Oral bioavailability in ferret. Format: ADME, organism-based, Mustela putorius furo. To be noted: in vivo.

For orientation: inhibition means the share of the control response that was lost under treatment. `CCC(CC)O[C@@H]1C=C(C(=O)O)C[C@H](NC(=S)Nc2ccccc2)[C@H]1NC(C)=O`: the results for the inhibition in series [1] and in [2] were 16.6% and 47.1%, respectively.
Broadly, the bioavailability is dose-corrected exposure relative to a reference, in per cent. Low readings indicate poor availability, high ones good availability. Regarding `CCC(CC)O[C@@H]1C=C(C(=O)O)C[C@H](NC(=N)N)[C@H]1NC(C)=O`, the bioavailability in series [3] stood at 2.1%.
In the case of `CC(C)[N+](C)(CCOC(=O)C1c2ccccc2Oc2ccccc21)C(C)C.[Br-]` [PROPANTHELINE BROMIDE], the Stabilty in series [4] is listed as 100%. Further, the fraction remaining at 10 min in the series “in vitro [5]” worked out at 68.2%.
On to `CCC(CC)O[C@@H]1C=C(C(=O)O)C[C@H](NC(=O)N2CCCCC2)[C@H]1NC(C)=O`, for which the inhibition in [1] stood at 25.6%; in series [2] it was 56.4%.
With `CCC(CC)O[C@@H]1C=C(C(=O)O)C[C@H](NC(=S)NCc2ccc(Br)cc2)[C@H]1NC(C)=O`, the inhibition came out at 17% in series [1] and 59.6% in series [2].
`CCC(CC)O[C@@H]1C=C(C(=O)O)C[C@H](NC(=S)Nc2ccc(C)c(C)c2)[C@H]1NC(C)=O`: the results for the inhibition in [1] and in series [2] were 15.3% and 52.4%, respectively.
In the case of `CCC(CC)O[C@@H]1C=C(C(=O)O)C[C@H](NC(=O)N(C(C)C)C(C)C)[C@H]1NC(C)=O`, the inhibition worked out at 32.3% in series [1] and 63.1% in [2].
What is called IC50 is the concentration that gives 50% inhibition. Take `CCC(CC)O[C@@H]1C=C(C(=O)O)C[C@H](NC(=O)Nc2cccc(Br)c2)[C@H]1NC(C)=O`: the IC50 in series [6] (read-out: IC50) amounted to 16900 nM.
For the compound `CCC(CC)O[C@@H]1C=C(C(=O)O)C[C@H](NC(=S)NC2CC2)[C@H]1NC(C)=O`, the inhibition in [1] was found to be 8.7%; in [2], 29.2%.
Consider `CCC(CC)O[C@@H]1C=C(C(=O)O)C[C@H](NC(=O)NCc2ccc(C#N)cc2)[C@H]1NC(C)=O`, for which the inhibition result in series [1] was “inactive”. The compound also registered an inhibition in series [2] of 32.5%.
On to `CCC(CC)O[C@@H]1C=C(C(=O)O)C[C@H](NC(=O)NCc2ccccc2)[C@H]1NC(C)=O`, for which the inhibition was found to be 6.8% in series [1] and 35.1% in series [2].
`CCC(CC)O[C@@H]1C=C(C(=O)O)C[C@H](NC(=O)Nc2cc(OC)c(OC)c(OC)c2)[C@H]1NC(C)=O`: the inhibition result in series [1] was “inactive”. Further, the inhibition in series [2] came out at 16.4%.
Take `CCC(CC)O[C@@H]1C=C(C(=O)O)C[C@H](NC(=O)Nc2cccc([N+](=O)[O-])c2)[C@H]1NC(C)=O`: the inhibition came out at 6.5% in series [1] and 36.9% in series [2].
On to `CCC(CC)O[C@@H]1C=C(C(=O)O)C[C@H](NC(=O)NCc2ccc(OC)cc2)[C@H]1NC(C)=O`, for which the inhibition result in [1] is “inactive”. This compound also gave an inhibition in series [2] of 36.5%.
For `CCC(CC)O[C@@H]1C=C(C(=O)O)C[C@H](NC(=O)NCCc2ccccc2)[C@H]1NC(C)=O`, in that order: “inactive” and 17.7%.
On to `CCC(CC)O[C@@H]1C=C(C(=O)O)C[C@H](NC(=S)NC)[C@H]1NC(C)=O`, for which, in [6] (read-out: IC50), the IC50 came out at 18600 nM.
As usually defined, the half-life is the time needed for the level to fall by half in the phase considered. Higher therefore signals slow loss. On to `O=C(O)Cc1ccccc1Nc1c(Cl)cccc1Cl` [DICLOFENAC], for which the half-life at 1 h in the series “in vitro [7]” was 0.735 h; in “in vitro [8]” it was 0.2 h; in the series “in vitro [9]”, 0.195 h.
Turning to `CCC(CC)O[C@@H]1C=C(C(=O)O)C[C@H](NC(=O)Nc2ccccc2)[C@H]1NC(C)=O`, the inhibition in series [1] was 17.6%; in series [2], 32.6%.
Broadly, the AUC is the area under the concentration-time curve, a measure of exposure. The term Tmax denotes the time from dosing to the highest level. As a reminder, the Cmax is the peak of the concentration-time curve. As to `CCC(CC)O[C@@H]1C=C(C(=O)O)C[C@H](NC(N)=O)[C@H]1NC(C)=O`, the IC50 in [6] (read-out: IC50) amounted to 254 nM; in series [10], 169 nM; in series [18], 8700 nM. Also, the AUC at 24 h in [11] was 23200 ng·h/mL; in series [12], 10300 ng·h/mL. In addition, in series [13], the Tmax is 0.75 h. Moreover, the peak level in series [14] (Cmax) was 3670 ng/mL. The compound further showed a half-life in [15] of 9.95 h. Besides, the F in series [16] is 100%. The compound further showed a bioavailability in [17] of 8.8%. Besides, the Stabilty in series [4] is recorded as 100%; in series [19] it was 122.6%. Besides, the half-life at 24 h in the series “in vivo” was 2.07 h. Besides, the amount remaining at 1 h in “in vitro [20]” worked out at 100%; in the series “in vitro [21]” it was 85.5%; in the series “in vitro [22]” it was 99.1%; in “in vitro [24]” it was 102%. Also, the half-life at 1 h in “in vitro [7]”, in the series “in vitro [8]” and in the series “in vitro [9]” was greater than 2.42 h each time. Moreover, the share remaining at 10 min in “in vitro [5]” worked out at 101%. Moreover, in the series “in vitro [23]”, the amount remaining at 0.5 h was found to be 99.1%.
As to `CO[C@@H]([C@@H]1OC(C(=O)O)=C[C@H](NC(=N)N)[C@H]1NC(C)=O)[C@H](O)CO`, the bioavailability in series [3] was determined as 3.5%.
Take `CCC(CC)O[C@@H]1C=C(C(=O)O)C[C@H](N)[C@H]1NC(C)=O` [OSELTAMIVIR CARBOXYLATE]: the figures for the half-maximal inhibitory concentration (IC50) in [6], in series [10] and in series [18] were 210 nM, 41.7 nM and 2500 nM, respectively. For the same compound, the AUC at 24 h in [11] was found to be 8400 ng·h/mL; in series [25], 300 ng·h/mL. The same compound showed a F in series [16] of 100%. Besides, the Tmax in series [26] is 4 h. This compound registered a Cmax in [27] of 30 ng/mL. In addition, the half-life at 24 h in “in vivo” was found to be 1.6 h.
In the case of `CCC(CC)[C@H](NC(C)=O)[C@@H]1[C@H](O)[C@@H](C(=O)O)C[C@H]1NC(=N)N` [PERAMIVIR ANHYDROUS], in series [28], the bioavailability is 2.5%.
Regarding `CCC(CC)O[C@@H]1C=C(C(=O)O)C[C@H](NC(=S)N(C(C)C)C(C)C)[C@H]1NC(C)=O`, the inhibition in series [1] is 20%; in [2] it was 80%.
The corresponding values for `CCC(CC)O[C@@H]1C=C(C(=O)O)C[C@H](NC(=S)NCc2ccc(F)cc2)[C@H]1NC(C)=O` are “inactive” and 21%.
Consider `CCC(CC)O[C@@H]1C=C(C(=O)O)C[C@H](NC(=O)NC(C)C)[C@H]1NC(C)=O`, for which the values for the inhibition in [1] and in series [2] were 8.3% and 32.3%, respectively.
Regarding `CCC(CC)O[C@@H]1C=C(C(=O)O)C[C@H](NC(N)=S)[C@H]1NC(C)=O`, the results for the inhibition in [1] and in [2] were 16.9% and 51.3%, respectively.
Consider `CCC(CC)O[C@@H]1C=C(C(=O)O)C[C@H](NC(=S)NCc2cccc(F)c2)[C@H]1NC(C)=O`, for which the inhibition result in [1] is “inactive”. In addition, the inhibition in [2] turned out to be 28.1%.
Turning to `CCC(CC)O[C@@H]1C=C(C(=O)O)C[C@H](NC(=O)N(C)C)[C@H]1NC(C)=O`, in series [6] (read-out: IC50), the IC50 was found to be 4830 nM.
